Assay results as given in ChEMBL document CHEMBL1201862, “PubChem BioAssay data set” (2004).
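96-well plates; 48 h exposure; 5 concentrations. Endpoints by linear interpolation between flanking doses. Not reached: highest tested concentration assigned. GI50 marks 50% less growth.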 The source made the active and inactive calls. Cut-off read from the data, not from the text of the source: active = GI50 up to about 1.1 µM and inactive = higher.

Columns and labels:
Experiment in all cases: DTP human tumour cell line panel, 48 h
[1] = tested on: Malme-3M
[2] = tested on: MCF7
[3] = tested on: HL-60
[4] = tested on: K562
[5] = tested on: MDA-N
[6] = tested on: OVCAR-5
[7] = tested on: OVCAR-4
[8] = tested on: SNB-19
[9] = tested on: A549
[10] = tested on: LOX IMVI
[11] = tested on: TK-10
[12] = tested on: KM12
[13] = tested on: M14
[14] = tested on: MDA-MB-435
[15] = tested on: HOP-92
[16] = tested on: HCT-116
[17] = tested on: MDA-MB-231
[18] = tested on: DU-145
[19] = tested on: SK-MEL-5
[20] = tested on: NCI-H226

Structure (SMILES)	GI50 [1]	GI50 [2]	GI50 [3]	GI50 [4]	GI50 [5]	GI50 [6]	GI50 [7]	GI50 [8]	GI50 [9]	GI50 [10]	GI50 [11]	GI50 [12]	GI50 [13]	GI50 [14]	GI50 [15]	GI50 [16]	GI50 [17]	GI50 [18]	GI50 [19]	GI50 [20]
O=[N+]([O-])C(=C1Nc2ccccc2N1)C(Cl)=C(Cl)Cl	30.3 µM (inactive)	39.7 µM (inactive)	65.6 µM (inactive)	81.7 µM (inactive)	> 100 µM (inactive)	> 100 µM (inactive)	27 µM (inactive)	> 100 µM (inactive)	> 100 µM (inactive)	> 100 µM (inactive)	> 100 µM (inactive)	> 100 µM (inactive)	62.5 µM (inactive)	88.1 µM (inactive)	> 100 µM (inactive)	88.1 µM (inactive)	24.8 µM (inactive)	> 100 µM (inactive)	> 100 µM (inactive)	> 100 µM (inactive)
CCOC(=O)c1cn(CC)c2ccc3c(c2c1=O)S(=O)(=O)C=C3	> 100 µM (inactive)	> 100 µM (inactive)	> 100 µM (inactive)	> 100 µM (inactive)	> 100 µM (inactive)	> 100 µM (inactive)	> 100 µM (inactive)	> 100 µM (inactive)	> 100 µM (inactive)	> 100 µM (inactive)	> 100 µM (inactive)	> 100 µM (inactive)	> 100 µM (inactive)	> 100 µM (inactive)	> 100 µM (inactive)	> 100 µM (inactive)	> 100 µM (inactive)	> 100 µM (inactive)	> 100 µM (inactive)	63.7 µM (inactive)
CCN(CC)CC(=O)O[C@]1(CC)C(=O)OCc2c1cc1n(c2=O)Cc2cc3ccccc3nc2-1	0.219 µM (active)	< 0.01 µM (active)	0.0171 µM (active)	0.0451 µM (active)	0.0951 µM (active)	0.0885 µM (active)	0.201 µM (active)	< 0.01 µM (active)	0.0237 µM (active)	< 0.0116 µM (active)	1.36 µM (inactive)	0.149 µM (active)	< 0.0201 µM (active)	0.0703 µM (active)	0.211 µM (active)	0.0307 µM (active)	3.37 µM (inactive)	< 0.01 µM (active)	0.0313 µM (active)	0.0209 µM (active)
CCC(C#N)NCc1ccc(CNC(C#N)CC)cc1 (stereo not given)	> 100 µM (inactive)	> 100 µM (inactive)	> 100 µM (inactive)	> 100 µM (inactive)	> 100 µM (inactive)	> 100 µM (inactive)	> 100 µM (inactive)	> 100 µM (inactive)	> 100 µM (inactive)	> 100 µM (inactive)	> 100 µM (inactive)	> 100 µM (inactive)	> 100 µM (inactive)	> 100 µM (inactive)	> 100 µM (inactive)	> 100 µM (inactive)	> 100 µM (inactive)	> 100 µM (inactive)	> 100 µM (inactive)	> 100 µM (inactive)
CCC1c2[nH]c3ccccc3c2C[C@H]2C(=O)N3CCC[C@H]3C(=O)N12 (stereo not given in full)	42.5 µM (inactive)	> 100 µM (inactive)	> 100 µM (inactive)	> 100 µM (inactive)	> 100 µM (inactive)	> 100 µM (inactive)	> 100 µM (inactive)	> 100 µM (inactive)	> 100 µM (inactive)	> 100 µM (inactive)	> 100 µM (inactive)	71.1 µM (inactive)	> 100 µM (inactive)	> 100 µM (inactive)	> 100 µM (inactive)	60.7 µM (inactive)	> 100 µM (inactive)	> 100 µM (inactive)	30.4 µM (inactive)	> 100 µM (inactive)
O=[N+]([O-])c1cc(Cl)cc2cc(Br)cnc12	> 31.6 µM (inactive)	> 31.6 µM (inactive)	> 31.6 µM (inactive)	> 31.6 µM (inactive)	> 31.6 µM (inactive)	> 31.6 µM (inactive)	> 31.6 µM (inactive)	27.8 µM (inactive)	> 31.6 µM (inactive)	> 31.6 µM (inactive)	27.7 µM (inactive)	> 10 µM (inactive)	> 31.6 µM (inactive)	> 31.6 µM (inactive)	5.46 µM (inactive)	> 31.6 µM (inactive)	21.1 µM (inactive)	> 31.6 µM (inactive)	16.7 µM (inactive)	29.6 µM (inactive)
NCC1Nc2ccccc2[C@@H](O)C1O (stereo not given in full)	> 100 µM (inactive)	> 100 µM (inactive)	> 100 µM (inactive)	> 100 µM (inactive)	> 100 µM (inactive)	> 100 µM (inactive)	> 100 µM (inactive)	> 100 µM (inactive)	> 100 µM (inactive)	> 100 µM (inactive)	> 100 µM (inactive)	> 100 µM (inactive)	> 100 µM (inactive)	> 100 µM (inactive)	> 100 µM (inactive)	> 100 µM (inactive)	> 100 µM (inactive)	> 100 µM (inactive)	> 100 µM (inactive)	> 100 µM (inactive)
O=c1cc(-c2ccccc2F)[nH]c2cc3c(cc12)OCO3	0.053 µM (active)	0.0953 µM (active)	0.0454 µM (active)	0.0628 µM (active)	< 0.01 µM (active)	1.31 µM (inactive)	> 24.6 µM (inactive)	0.202 µM (active)	0.204 µM (active)	0.119 µM (active)	2.88 µM (inactive)	0.0344 µM (active)	0.0528 µM (active)	< 0.01 µM (active)	0.212 µM (active)	0.0489 µM (active)	0.29 µM (active)	0.0399 µM (active)	0.0211 µM (active)	0.184 µM (active)
